Test [1] relates to A549 human lung carcinoma cell line. Briefly: cell viability (proliferation) assay, Trypan blue exclusion counting, A549. Type of test: cell-based. To be noted: A549 cells, compound @ 1 μM, 72 hours, vs 1% DMSO control. Here is the method:
(§1) Anti-oncogenic effects of the compounds of the present invention were evaluated by cell viability (proliferation) assays in H460 non-small cell lung cancer cell line and A549 human lung carcinoma cell line. H460 and A549 were purchased from ATCC (American Type Culture Collection), and they were maintained in RPMI 1640 and DMEM, respectively, with 10% fetal bovine serum. Cell lines were cultured in an incubator with 5% CO2 at 37° C.
(§2) Cells were seeded in 6-well-plates (10^5 cells/ml medium per well) and allowed them to grow for 24 hrs in the incubator. Cells were then treated with 1 μM of tested compounds. Cells treated with 1% DMSO were used as control. 72 hours after treatment, cells were removed by trypsinization and viable cell number was obtained by counting Trypan blue-excluding cells under microscope with a hemocytometer. Experiments were performed in triplicate. Statistical were carried out by analysis of variance (ANOVA) and LSD test for multiple comparisons, with p<0.05 considered significant.

Test [2] has as its system H460 non-small cell lung cancer cell line. The experiment in a line: cell viability (proliferation) assay, Trypan blue exclusion counting, H460. The class given is cell-based. The note with it: H460 cells, compound @ 1 μM, 72 hours, vs 1% DMSO control. Here is the method: as §1, §2

For `COC1=CC(c2cc3sc(Cl)cc3[nH]2)=N/C1=C\c1[nH]c(C)cc1C` [Example 2, (Z)-2-chloro-5-(2-((3,5-dimethyl-1H-pyrrol-2-yl)methylene)-3-methoxy-2H-pyrrol-5-yl)-4H-thieno[3,2-b]pyrrole], the “Cell Death (%) after 3-day treatment” value in test [1] came out at 86.7%; in test [2] it was 88.6%.
`COC1=CC(c2cc3ccccc3[nH]2)=N/C1=C\c1[nH]c(C)cc1C` [Obatoclax]: the “Cell Death (%) after 3-day treatment” value was found to be 76.6% in test [1] and 88.3% in test [2].

The values above are taken from US8946445B2, “Heterocyclic molecules as apoptosis inducers” (Nanjing Allgen Pharma Co. Ltd., priority 2011, dated 2015).
